The record followed here is patent US12162879B2, “Pyridopyrimidine derivative, preparation method therefor and medical use thereof” (Jiangsu Hengrui Medicine Co., Ltd., priority 2018, dated 2024).

The EC50 is the midpoint of the concentration-response curve. One may read the Emax as the greatest response seen or fitted, relative to the assay's reference.

Type in all cases: cell-based
Assay [1] deals with peripheral blood mononuclear cells (PBMC). The assay is described as follows: Stimulation of IL12 secretion from PBMC (ELISA). As to conditions: minimum effective concentration, human PBMC, 24 hours. On the procedure: (§1) The stimulating effect of the compounds of the present invention on the ability of secretion of IL12 and IFN γ from PBMC was determined by the following experimental method.
(§2) • 1. RMPI 1640 (Invitrogen, 11875); • 2. FBS (Gibco, 10099-141); • 3. Ficoll-Paque PREMIUM (GE, 17-5442-02); • 4. Trypan blue solution (Sigma, T8154-100 ML); • 5. SepMate™-50 (Stemcell, 15460); • 6. Bright-LineIM blood cell counter (Sigma, Z359629-1EA); • 7. 96-well cell culture plate (Corning, 3599); • 8. 96-well v-bottom plate (Corning, 3894); • 9. Human IL-12 ELISA kit (Neobioscience Technology Co., EHC152.96); • 10. Human IFN γ kit (cisbio, 62HIFNGPEG); and • 11. PHERAStar multi-function microplate reader (BMG, PHERAStar). II. Experimental Procedures
(§3) The compound was diluted with pure DMSO to a maximum concentration of 5 mM, and a total of 9 points were obtained by a 4-fold gradient dilution. 4 μl of the compound solution was then added to 196 μl of RMPI 1640 medium containing 10% FBS and mixed well. 50 μl of the mixture was taken and added to a 96-well cell culture plate.
(§4) All reagents were equilibrated to room temperature. 60 ml of blood from a healthy human and the same volume of PBS (containing 2% FBS) were added to a 250 ml culture flask, gently pipetted, mixed well and diluted. 15 ml of lymphocyte separation solution Ficoll-Paque PREMIUM was added to a 50 ml PBMC centrifuge tube SepMate™-50, followed by the addition of 30 ml of the above diluted blood. The mixture was centrifuged at 1200 g for 10 minutes at room temperature. The supernatant was taken and then centrifuged at 300 g for 8 minutes. The cells were re-suspended in the RMPI 1640 medium containing 10% FBS and counted, and the number of PBMCs was adjusted to 3.33×10^6 cells/ml. 150 μl of the cell solution was added to the plate containing the compounds, and incubated in an incubator at 37° C., 5.0% CO2 for 24 hours. The cell culture plate was placed in a centrifuge, and centrifuged at 1200 rpm for 10 minutes at room temperature. 150 μl of the supernatant was taken from each well.
The reagents in the Human IL-12 ELISA kit were equilibrated to room temperature. According to the kit's instruction, the highest concentration of the standard is 2000 pg/ml, and a total of 8 points were obtained by a 2-fold gradient dilution. The sample to be tested was diluted 20 folds. The solution was then added to a pre-coated plate at 100 μl/well. The plate was incubated at 37° C. for 90 minutes and rinsed. The […] was added at 100 μl/well, and the plate was incubated at 37° C. for 60 minutes and rinsed. HRP binding enzyme was added at 100 μl/well, and the plate was incubated at 37° C. for 30 minutes and rinsed. TMB was added, and the plate was incubated at room temperature for 5 minutes. Finally, the stop solution was added to stop the reaction, and the absorbance at 450 nm was read by the microplate reader.
(§5) The concentration of the compound that can stimulate PBMC to produce […] that is 3 times higher than the average value of the group without the compound (SD of the group without the compound) was defined as the minimum effective concentration (MEC) value of the compound.
(In general: An ELISA detects its analyte on a solid surface through an enzyme-linked reagent.)

Another assay addresses human TLR8 (Homo sapiens (Human), UniProt Q9NR97). The assay is described as follows: Agonist activity on human TLR8 in HEK-Blue hTLR8 stably transfected cells. To be noted: 16 hours, OD 620 nm. As to the method:
The agonist effect of the compounds of the present invention on hTLR8 expressed by the HEK-Blue™ hTLR8 stably transfected cells was determined by the following experimental method.
(§6) • 1. DMEM(Gibco, 10564-029); • 2. Fetal bovine serum (GIBCO, 10099); • 3. Trypan blue solution (Sigma, T8154-100 ML); • 4. Flexstation 3 multi-function microplate reader (Molecular Devices); • 5. HEK-Blue™ hTLR8 cell line (InvivoGen, hkb-hTLR8), or HEK-Blue™ hTLR7 cell line (InvivoGen, hkb-hTLR7); • 6. HEK-Blue detection reagent (InvivoGen, hb-det3); and • 7. Phosphate buffer solution (PBS) pH 7.4 (Shanghai Basalmedia Technologies Co., Ltd., B320). II. Experimental Procedures a. Determination of Agonist Activity on Human TLR8
(§7) A bag of HEK-Blue detection dry powder was dissolved in 50 ml of water free of endotoxin, and the solution was then placed in an incubator at 37° C. for 10 minutes followed by sterile filtration to prepare a HEK-Blue detection medium. The compound was firstly formulated into a 20 mM stock solution, then diluted with pure DMSO to a maximum concentration of 6×10^6 nM, and a total of 10 points were obtained by a 3-fold gradient dilution. The above formulated compound was firstly diluted 20-fold with the medium, then 20 μl of the diluted compound was added to each well.
The supernate was removed from the HEK-Blue™ hTLR8 cells, to which 2-5 ml of pre-warmed PBS was then added. The cells were placed in an incubator for 1-2 minutes, gently pipetted, and counted by trypan blue staining. The cells were re-suspended in the HEK-Blue detection medium to adjust the concentration to 2.2×10^5 cells/ml. 180 μl of cells was added to the above 96-well plate comprising 20 μl of the compound, and incubated at 37° C. for 16 hours.
(§8) The corresponding OD values were obtained by a microplate reader at a wavelength of 620 nm, and the EC50 values of the compounds were calculated by Graphpad Prism.

The next assay concerns the target human TLR7 (Homo sapiens (Human), UniProt Q9NYK1). The assay is described as follows: Agonist activity on human TLR7 in HEK-Blue hTLR7 cells. To be noted: 16 hours, OD 620 nm. On the procedure: as §6, §7
The supernate was removed from the HEK-Blue™ hTLR7 cells, to which 2-5 ml of pre-warmed PBS was then added. The cells were placed in an incubator for 1-2 minutes, gently pipetted, and counted by trypan blue staining. The cells were re-suspended in the HEK-Blue detection medium to adjust the concentration to 2.2×10^5 cells/ml. 180 μl of cells was added to the above 96-well plate comprising 20 μl of the compound, and incubated at 37° C. for 16 hours.
as §8

The test system of assay [2] is peripheral blood mononuclear cells (PBMC). As to the kind of experiment: Stimulation of IFNγ secretion from PBMC. To be noted: minimum effective concentration, human PBMC, 24 hours. As to the method:
as §1, §2, §3, §4
The reagents in the Human IFN γ test kit were equilibrated to room temperature. The standard and detection antibody were prepared according to the kit's instruction under dark conditions. 16 μl of the supernatant obtained by centrifugation was added to each well, and 4 μl of freshly prepared mixed detection antibody was added to each well. The solution was mixed well by shaking, and incubated overnight in the dark at room temperature. The plate was read by the PHERAStar multi-function microplate reader.
as §5

Where only a bound is given, the exact number is not on record here.

Sequence of human TLR8 (Q9NR97 27-1041): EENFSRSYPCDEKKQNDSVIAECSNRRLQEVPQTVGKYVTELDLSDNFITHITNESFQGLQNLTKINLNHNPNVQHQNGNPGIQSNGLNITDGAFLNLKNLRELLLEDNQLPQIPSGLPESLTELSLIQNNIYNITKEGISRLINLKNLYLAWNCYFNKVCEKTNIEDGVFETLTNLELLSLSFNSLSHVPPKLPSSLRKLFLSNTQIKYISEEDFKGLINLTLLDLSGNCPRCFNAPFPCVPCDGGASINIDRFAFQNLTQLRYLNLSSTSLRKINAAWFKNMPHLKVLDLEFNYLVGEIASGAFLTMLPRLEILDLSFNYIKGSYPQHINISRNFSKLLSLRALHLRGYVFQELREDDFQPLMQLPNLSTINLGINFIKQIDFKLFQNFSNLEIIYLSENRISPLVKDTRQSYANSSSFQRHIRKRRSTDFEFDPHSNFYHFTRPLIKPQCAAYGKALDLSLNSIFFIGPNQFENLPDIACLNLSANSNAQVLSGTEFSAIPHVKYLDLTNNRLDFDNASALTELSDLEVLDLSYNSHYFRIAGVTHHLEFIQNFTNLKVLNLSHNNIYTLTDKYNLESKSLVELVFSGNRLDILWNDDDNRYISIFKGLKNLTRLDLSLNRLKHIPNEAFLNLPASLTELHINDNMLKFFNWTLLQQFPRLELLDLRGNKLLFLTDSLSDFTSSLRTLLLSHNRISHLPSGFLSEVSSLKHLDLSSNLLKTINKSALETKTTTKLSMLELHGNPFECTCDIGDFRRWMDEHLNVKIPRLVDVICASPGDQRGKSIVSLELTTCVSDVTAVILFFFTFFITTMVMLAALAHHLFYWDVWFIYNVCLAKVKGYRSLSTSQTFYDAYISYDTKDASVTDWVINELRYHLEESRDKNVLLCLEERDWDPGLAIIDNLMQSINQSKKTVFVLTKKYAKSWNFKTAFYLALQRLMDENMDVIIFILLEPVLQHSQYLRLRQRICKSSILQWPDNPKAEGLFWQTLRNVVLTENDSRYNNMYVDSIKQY
Sequence of human TLR7 (Q9NYK1 27-1049): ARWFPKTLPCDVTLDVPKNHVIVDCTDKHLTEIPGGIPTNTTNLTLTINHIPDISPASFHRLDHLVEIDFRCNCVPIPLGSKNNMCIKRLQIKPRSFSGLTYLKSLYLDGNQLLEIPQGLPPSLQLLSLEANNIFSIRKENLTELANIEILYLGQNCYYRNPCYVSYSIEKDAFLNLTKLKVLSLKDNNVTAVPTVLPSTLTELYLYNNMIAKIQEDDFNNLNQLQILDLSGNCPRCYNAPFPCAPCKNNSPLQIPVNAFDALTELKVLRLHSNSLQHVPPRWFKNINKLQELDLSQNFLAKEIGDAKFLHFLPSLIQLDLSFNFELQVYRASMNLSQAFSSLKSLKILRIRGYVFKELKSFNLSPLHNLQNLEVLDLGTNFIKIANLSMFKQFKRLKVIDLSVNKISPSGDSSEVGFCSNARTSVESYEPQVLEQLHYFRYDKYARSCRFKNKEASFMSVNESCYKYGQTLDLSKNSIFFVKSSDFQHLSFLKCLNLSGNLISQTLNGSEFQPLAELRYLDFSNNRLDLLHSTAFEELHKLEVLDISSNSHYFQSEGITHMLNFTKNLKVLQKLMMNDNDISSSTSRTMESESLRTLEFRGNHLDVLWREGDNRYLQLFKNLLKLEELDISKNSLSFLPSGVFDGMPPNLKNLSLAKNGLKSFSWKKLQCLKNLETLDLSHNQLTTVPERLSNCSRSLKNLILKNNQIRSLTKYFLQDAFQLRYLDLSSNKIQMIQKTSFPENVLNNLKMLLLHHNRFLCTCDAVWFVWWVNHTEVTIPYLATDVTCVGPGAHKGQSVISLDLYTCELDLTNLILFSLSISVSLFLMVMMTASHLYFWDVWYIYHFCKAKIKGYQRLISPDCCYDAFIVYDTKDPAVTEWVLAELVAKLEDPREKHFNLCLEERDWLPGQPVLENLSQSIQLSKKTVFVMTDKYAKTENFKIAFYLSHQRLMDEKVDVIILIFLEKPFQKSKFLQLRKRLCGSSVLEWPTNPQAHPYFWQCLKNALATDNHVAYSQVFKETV

On to `CCCCC(C)(CO)Nc1nc(N)nc2cc(-c3ccc(CN4CCNCC4)nc3)cnc12` (centres unmarked) [Example 9, 2-((2-Amino-7-(6-(piperazin-1-ylmethyl)pyridin-3-yl)pyrido[3,2-d]pyrimidin-4-yl)amino)-2-methylhexan-1-ol], for which the “IL12 MEC” value in assay [1] was found to be 24 nM. In addition, at human TLR8, a half-maximal response (EC50) required 150 nM and the Emax came out at 103%. Besides, at human TLR7, the 50% effective concentration (EC50) was more than 30000 nM and the maximal effect (Emax) amounted to 5%. In addition, in assay [2], the “IFNγ MEC” value came to 94 nM.

As to `CCCC[C@](C)(CO)Nc1nc(N)nc2cc(-c3cnc(CN4CCN(C)CC4)nc3)cnc12` [Example 7, (R)-2-((2-Amino-7-(2-((4-methylpiperazin-1-yl)methyl)pyrimidin-5-yl)pyrido[3,2-d]pyrimidin-4-yl)amino)-2-methylhexan-1-ol], on human TLR8, the half-maximal effective concentration (EC50) was found to be 80 nM and the Emax stood at 116%.

As for `CCCCC(C)(CO)Nc1nc(N)nc2cc(-c3ccc(CN4CCCC4)nc3)cnc12` (centres unmarked) [Example 1, 2-((2-Amino-7-(6-(pyrrolidin-1-ylmethyl)pyridin-3-yl)pyrido[3,2-d]pyrimidin-4-yl)amino)-2-methylhexan-1-ol], on human TLR8, the EC50 is 130 nM and the Emax turned out to be 97%.

For the compound `CCCCC(C)(CO)Nc1nc(N)nc2cc(-c3ccc(C4CCN(C)CC4)nc3)cnc12` (centres unmarked) [Example 3, 2-((2-Amino-7-(6-(1-methylpiperidin-4-yl)pyridin-3-yl)pyrido[3,2-d]pyrimidin-4-yl)amino)-2-methylhexan-1-ol], in assay [1], the “IL12 MEC” value was 15 nM. On human TLR8, this compound gave an EC50 of 100 nM and an Emax of 104%. In addition, in assay [2], the “IFNγ MEC” value amounted to 27 nM.
